Data on 28 compounds can be found in patent publication US20240400555A1 (Initial Therapeutics, Inc., priority 2023, published 2024).

The structures appear in SMILES notation.

In this test the test system is HCT-116 Firefly-luciferase reporter cells. The experiment in a line: Cellular c-MYC Reporter Assay. Type of test: cell-based. Particulars: Homo sapiens; untitled table following Table 8a; HCT-116 Firefly-luciferase reporter cells, 24 h; read-out: pIC50 (converted). The protocol:
HCT-116 Firefly-luciferase reporter cells (BPS Bioscience) were seeded in 96-well tissue-culture treated sterile plates (Greiner Bio-One) at 5e4 cells/mL in 100 μL complete growth media (McCoy's 5A+10% FBS, +1% Pen-Strep, +1% G418). Cells were incubated at 37° C. with 5% CO2 for 4-6 h then treated with 3× compound solution in 50 μL complete growth media for a final volume of 150 μL per well with 0.2% DMSO. After 24 h incubation at 37° C. with 5% CO2, plates were allowed to equilibrate to RT for 20 min then developed by addition of 100 μL ONE-Glo Luciferase detection reagent (Promega), incubated at RT for 10 min. Luminescence was recorded using a SpectraMax i3x plate reader (Molecular Devices) and analyzed using Prism GraphPad 9 software.
A general note: Reporter assays use an easily measured gene product as a stand-in for the process of interest.
As for `CCOC(=O)/C=C/c1ccc2ccnc(N(C(=O)c3ccc(-n4nnc5cccnc54)cc3F)[C@@H]3CCCNC3)c2c1` [Example 130, ethyl (R,E)-3-(1-(4-(3H-[1,2,3]triazolo[4,5-b]pyridin-3-yl)-2-fluoro-N-(piperidin-3-yl)benzamido)isoquinolin-7-yl)acrylate], the IC50 was 2290 nM.
To `Cc1cccc2ccnc(N(C(=O)c3ccc(Nc4cccn(C)c4=O)cc3F)[C@@H]3CCCNC3)c12` [Example 131, (R)-2-fluoro-4-((1-methyl-2-oxo-1,2-dihydropyridin-3-yl)amino)-N-(8-methylisoquinolin-1-yl)-N-(piperidin-3-yl)benzamide] belongs 1910 nM; to `Cc1cccc2ccnc(N(C(=O)c3ccc(Nc4ccc[nH]c4=O)cc3F)[C@@H]3CCCNC3)c12` [Example 132, (R)-2-fluoro-N-(8-methylisoquinolin-1-yl)-4-((2-oxo-1,2-dihydropyridin-3-yl)amino)-N-(piperidin-3-yl)benzamide], 1580 nM.
With `Cc1cccc2ccnc(N(C(=O)c3ccc(Oc4ncccn4)cc3F)[C@@H]3CCCNC3)c12` [Example 133, 2-fluoro-N-(8-methyl-1-isoquinolyl)-N-(3-piperidyl)-4-pyrimidin-2-yloxy-benzamide], the IC50 is 269 nM.
To `O=C(c1ccc(-n2nnc3cccnc32)cc1F)N(c1nccc2ccc(CCCO)cc12)[C@@H]1CCCNC1` [Example 134, (R)-4-(3H-[1,2,3]triazolo[4,5-b]pyridin-3-yl)-2-fluoro-N-(7-(3 hydroxypropyl)isoquinolin-1-yl)-N-(piperidin-3-yl)benzamide] belongs 575 nM; to `O=C(c1ccc(-n2nnc3cccnc32)cc1F)N(c1nccc2ccc(/C=C/CO)cc12)[C@@H]1CCCNC1` [Example 135, (R)-4-(3H-[1,2,3]triazolo[4,5-b]pyridin-3-yl)-2-fluoro-N-(7-(3-hydroxyprop-1-en-1-yl)isoquinolin-1-yl)-N-(piperidin-3-yl)benzamide], 575 nM.
To `O=C(c1ccc(-n2nnc3cccnc32)cc1F)N(c1ncccc1-c1cc[nH]n1)[C@@H]1CCCNC1` [Example 136, (R)—N-(3-(1H-pyrazol-3-yl)pyridin-2-yl)-4-(3H-[1,2,3]triazolo[4,5-b]pyridin-3-yl)-2-fluoro-N-(piperidin-3-yl)benzamide] belongs 1100 nM; to `Cc1ccnc(N(C(=O)c2ccc(-n3nnc4cccnc43)cc2F)[C@@H]2CCCNC2)c1/C=C/CCO` [Example 137, (R,E)-4-(3H-[1,2,3]triazolo[4,5-b]pyridin-3-yl)-2-fluoro-N-(3-(4-hydroxybut-1-en-1-yl)-4-methylpyridin-2-yl)-N-(piperidin-3-yl)benzamide], 2950 nM.
With `Cc1cccc2ccnc(N(C(=O)c3ccc(-n4nnc5ccc(-c6cc[nH]n6)nc54)cc3F)[C@@H]3CCCNC3)c12` [Example 138, (R)-4-(5-(1H-pyrazol-3-yl)-3H-[1,2,3]triazolo[4,5-b]pyridin-3-yl)-2-fluoro-N-(8-methylisoquinolin-1-yl)-N-(piperidin-3-yl)benzamide] the figure was 44.7 nM.
On to `CNC(=O)c1ccc2nnn(-c3ccc(C(=O)N(c4nccc5cccc(C)c45)[C@@H]4CCCNC4)c(F)c3)c2n1` [Example 139, (R)-3-(3-fluoro-4-((8-methylisoquinolin-1-yl)(piperidin-3-yl)carbamoyl)phenyl)-N-methyl-3H-[1,2,3]triazolo[4,5-b]pyridine-5-carboxamide], for which the IC50 was 170 nM.
As to `COC(=O)c1ccc2nnn(-c3ccc(C(=O)N(c4nccc5cccc(C)c45)[C@@H]4CCCNC4)c(F)c3)c2n1` [Example 140, methyl (R)-3-(3-fluoro-4-((8-methylisoquinolin-1-yl)(piperidin-3-yl)carbamoyl)phenyl)-3H-[1,2,3]triazolo[4,5-b]pyridine-5-carboxylate], the IC50 was 240 nM.
To `O=C(c1ccc(I)cc1F)N(c1nccc2cccc(Cl)c12)[C@@H]1CCCNC1` [Example 141, (R)—N-(8-chloroisoquinolin-1-yl)-2-fluoro-4-iodo-N-(piperidin-3-yl)benzamide] belongs 1910 nM; to `CCc1nnn(-c2ccc(C(=O)N(c3nccc4cccc(C)c34)[C@@H]3CCCNC3)c(F)c2)n1` [Example 142, (R)-4-(5-ethyl-2H-tetrazol-2-yl)-2-fluoro-N-(8-methylisoquinolin-1-yl)-N-(piperidin-3-yl)benzamide], 79.4 nM; to `O=C(c1ccc(-n2nnc3cccnc32)cc1F)N(c1nccc2cc(Br)ccc12)[C@@H]1CCCNC1` [Example 143, (R)-4-(3H-[1,2,3]triazolo[4,5-b]pyridin-3-yl)-N-(6-bromoisoquinolin-1-yl)-2-fluoro-N-(piperidin-3-yl)benzamide], 724 nM.
Regarding `O=C(c1ccc(-n2nnc3cccnc32)cc1F)N(c1nccc2cc(F)ccc12)[C@@H]1CCCNC1` [Example 144, (R)-4-(3H-[1,2,3]triazolo[4,5-b]pyridin-3-yl)-2-fluoro-N-(6-fluoroisoquinolin-1-yl)-N-(piperidin-3-yl)benzamide], the IC50 is 603 nM.
To `COc1ccc2c(N(C(=O)c3ccc(-n4nnc5cccnc54)cc3F)[C@@H]3CCCNC3)nccc2c1` [Example 145, (R)-4-(3H-[1,2,3]triazolo[4,5-b]pyridin-3-yl)-2-fluoro-N-(6-methoxyisoquinolin-1-yl)-N-(piperidin-3-yl)benzamide] belongs 525 nM; to `O=C(c1ccc(-n2nnc3cccnc32)cc1F)N(c1nccc2cc(CO)ccc12)[C@@H]1CCCNC1` [Example 146, (R)-4-(3H-[1,2,3]triazolo[4,5-b]pyridin-3-yl)-2-fluoro-N-(6-(hydroxymethyl)isoquinolin-1-yl)-N-(piperidin-3-yl)benzamide], 562 nM.
To `N#Cc1ccc2c(N(C(=O)c3ccc(-n4nnc5cccnc54)cc3F)[C@@H]3CCCNC3)nccc2c1` [Example 147, (R)-4-(3H-[1,2,3]triazolo[4,5-b]pyridin-3-yl)-2-fluoro-N-(6-cyanoisoquinolin-1-yl)-N-(piperidin-3-yl)benzamide] belongs 1380 nM; to `NC(=O)CCc1ccc2ccnc(N(C(=O)c3ccc(-n4nnc5cccnc54)cc3F)[C@@H]3CCCNC3)c2c1` [Example 148, (R)-4-(3H-[1,2,3]triazolo[4,5-b]pyridin-3-yl)-N-(7-(3-amino-3-oxopropyl)isoquinolin-1-yl)-2-fluoro-N-(piperidin-3-yl)benzamide], 13800 nM; to `NC(=O)/C=C/c1ccc2ccnc(N(C(=O)c3ccc(-n4nnc5cccnc54)cc3F)[C@@H]3CCCNC3)c2c1` [Example 149, (R,E)-4-(3H-[1,2,3]triazolo[4,5-b]pyridin-3-yl)-N-(7-(3-amino-3-oxoprop-1-en-1-yl)isoquinolin-1-yl)-2-fluoro-N-(piperidin-3-yl)benzamide], 3800 nM.
To `O=C(c1ccc(-n2nnc3cccnc32)cc1F)N(c1nccc2ccc(-c3cncnc3)cc12)[C@@H]1CCCNC1` [Example 150, (R)-4-(3H-[1,2,3]triazolo[4,5-b]pyridin-3-yl)-2-fluoro-N-(piperidin-3-yl)-N-(7-(pyrimidin-5-yl)isoquinolin-1-yl)benzamide] belongs 2290 nM; to `O=C(c1ccc(-n2nnc3cccnc32)cc1F)N(c1nccc2ccc(-c3cccnc3)cc12)[C@@H]1CCCNC1` [Example 151, (R)-4-(3H-[1,2,3]triazolo[4,5-b]pyridin-3-yl)-2-fluoro-N-(piperidin-3-yl)-N-(7-(pyridin-3-yl)isoquinolin-1-yl)benzamide], 1020 nM; to `O=C(c1ccc(-n2nnc3cccnc32)cc1F)N(c1nccc2ccc(-c3ccn[nH]3)cc12)[C@@H]1CCCNC1` [Example 152, (R)—N-(7-(1H-pyrazol-5-yl)isoquinolin-1-yl)-4-(3H-[1,2,3]triazolo[4,5-b]pyridin-3-yl)-2-fluoro-N-(piperidin-3-yl)benzamide], 468 nM.
For `CNC(=O)OCc1ccc2ccnc(N(C(=O)c3ccc(-n4nnc5cccnc54)cc3F)[C@@H]3CCCNC3)c2c1` [Example 153, (R)-(1-(4-(3H-[1,2,3]triazolo[4,5-b]pyridin-3-yl)-2-fluoro-N-(piperidin-3-yl)benzamido)isoquinolin-7-yl)methyl methylcarbamate], the IC50 is 2400 nM.
To `O=C(c1ccc(-n2nnc3cccnc32)cc1F)N(c1nccc2ccc(CO)cc12)[C@@H]1CCCNC1` [Example 154, (R)-4-(3H-[1,2,3]triazolo[4,5-b]pyridin-3-yl)-2-fluoro-N-(7-(hydroxymethyl)isoquinolin-1-yl)-N-(piperidin-3-yl)benzamide] belongs 1050 nM; to `NC(=O)c1ccc2ccnc(N(C(=O)c3ccc(-n4nnc5cccnc54)cc3F)[C@@H]3CCCNC3)c2c1` [Example 155, (R)-1-(4-(3H-[1,2,3]triazolo[4,5-b]pyridin-3-yl)-2-fluoro-N-(piperidin-3-yl)benzamido)isoquinoline-7-carboxamide], 5750 nM.
With `N#Cc1ccc2ccnc(N(C(=O)c3ccc(-n4nnc5cccnc54)cc3F)[C@@H]3CCCNC3)c2c1` [Example 156] the figure was 7080 nM.
Take `O=C(c1ccc(-n2nnc3cccnc32)cc1F)N(c1ncccc1-c1cc2cnccc2s1)[C@@H]1CCCNC1` [Example 157, (R)-4-(3H-[1,2,3]triazolo[4,5-b]pyridin-3-yl)-2-fluoro-N-(piperidin-3-yl)-N-(3-(thieno[3,2-c]pyridin-2-yl)pyridin-2-yl)benzamide]: the IC50 is 501 nM.
